# Measurements as given in patent US10975098B2, “Substituted aminothiazolopyrimidinediones for the treatment of virus infection” (Hoffmann-La Roche Inc., priority 2015, dated 2021).
# Columns and labels:
# [1] = biological target: T1, human TLR7 (Homo sapiens, UniProt Q9NYK1); assay: HEK293-Blue-hTLR-7 cells assay (SEAP reporter); assay type: cell-based; settings: TLR7 agonism, 20 hours incubation, 1% DMSO
# T1 sequence (Q9NYK1 27-1049): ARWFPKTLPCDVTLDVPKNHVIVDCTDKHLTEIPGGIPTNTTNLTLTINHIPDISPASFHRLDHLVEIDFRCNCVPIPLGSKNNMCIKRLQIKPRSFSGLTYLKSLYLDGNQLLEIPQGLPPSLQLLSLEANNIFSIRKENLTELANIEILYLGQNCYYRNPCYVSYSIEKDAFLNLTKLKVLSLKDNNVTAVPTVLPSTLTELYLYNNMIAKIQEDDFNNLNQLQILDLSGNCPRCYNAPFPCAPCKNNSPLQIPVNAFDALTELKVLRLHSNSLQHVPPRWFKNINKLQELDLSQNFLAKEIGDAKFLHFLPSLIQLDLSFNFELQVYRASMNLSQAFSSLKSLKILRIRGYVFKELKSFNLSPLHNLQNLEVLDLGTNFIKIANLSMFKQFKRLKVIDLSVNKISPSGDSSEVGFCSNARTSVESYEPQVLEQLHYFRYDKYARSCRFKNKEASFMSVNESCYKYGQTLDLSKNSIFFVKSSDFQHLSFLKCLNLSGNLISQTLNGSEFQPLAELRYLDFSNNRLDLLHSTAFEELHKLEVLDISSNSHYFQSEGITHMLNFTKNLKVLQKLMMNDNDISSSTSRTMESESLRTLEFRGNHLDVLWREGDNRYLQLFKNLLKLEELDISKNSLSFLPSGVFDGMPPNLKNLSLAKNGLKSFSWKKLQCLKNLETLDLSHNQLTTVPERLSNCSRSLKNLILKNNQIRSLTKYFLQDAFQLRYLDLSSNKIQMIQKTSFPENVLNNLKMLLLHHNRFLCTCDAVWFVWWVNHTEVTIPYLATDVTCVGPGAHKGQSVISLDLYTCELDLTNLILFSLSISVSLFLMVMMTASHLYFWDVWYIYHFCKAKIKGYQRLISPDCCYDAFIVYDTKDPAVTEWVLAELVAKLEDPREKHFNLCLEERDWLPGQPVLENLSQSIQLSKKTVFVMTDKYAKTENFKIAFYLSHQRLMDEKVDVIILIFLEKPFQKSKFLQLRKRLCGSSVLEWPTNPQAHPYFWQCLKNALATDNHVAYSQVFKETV
# Text: HEK293-Blue-hTLR-7 Cells Assay
# (§1) A stable HEK293-Blue-hTLR-7 cell line was purchased from InvivoGen (Cat. #: hkb-htlr7, San Diego, Calif., USA). These cells were designed for studying the stimulation of human TLR7 by monitoring the activation of NF-κB. A SEAP (secreted embryonic alkaline phosphatase) reporter gene was placed under the control of the IFN-β minimal promoter fused to five NF-κB and AP-1-binding sites. The SEAP was induced by activating NF-κB and AP-1 via stimulating HEK-Blue hTLR7 cells with TLR7 ligands. Therefore the reporter expression was regulated by the NF-κB promoter upon stimulation of human TLR7. The cell culture supernatant SEAP reporter activity was determined using QUANTI-Blue™ kit (Cat. #: rep-qb 1, Invivogen, San Diego, Calif., USA) at a wavelength of 640 nm, a detection medium that turns purple to blue in the presence of alkaline phosphatase.
# (§2) HEK293-Blue-hTLR7 cells were incubated at a density of 250,000˜450,000 cells/mL in a volume of 180 μL in a 96-well plate in Dulbecco's Modified Eagle's medium (DMEM) containing 4.5 g/L glucose, 50 U/mL penicillin, […], […], 2 mM L-glutamine, 10% (v/v) heat-inactivated fetal bovine serum for 24 hours. Then the HEK293-Blue-hTLR-7 cells were incubated with addition of 20 μL test compound in a serial dilution in the presence of final DMSO at 1% and perform incubation under 37° C. in a CO2 incubator for 20 hours. Then 20 μL of the supernatant from each well was incubated with 180 μL Quanti-blue substrate solution at 37° C. for 1-3 hours and the absorbance was read at 620-655 nm using a spectrophotometer. The signalling pathway that TLR7 activation leads to downstream NF-κB activation has been widely accepted, and therefore similar reporter assay was also widely used for evaluating TLR7 agonist (Tsuneyasu Kaisho and Takashi Tanaka, Trends in Immunology, Volume 29, Issue 7, July 2008, Pages 329. sci; Hiroaki Hemmi et al, Nature Immunology 3, 2002, 196-200).
# (§3) The compounds of the present invention were tested in the above assay for their TLR7 and TLR8 agonism activities as described herein and results are listed in Table 1.
# [2] = biological target: T2, human TLR8 (Homo sapiens, UniProt Q9NR97); assay: HEK293-Blue-hTLR-8 cells assay (SEAP reporter); assay type: cell-based; settings: TLR8 agonism, 20 hours incubation, 1% DMSO
# T2 sequence (Q9NR97 27-1041): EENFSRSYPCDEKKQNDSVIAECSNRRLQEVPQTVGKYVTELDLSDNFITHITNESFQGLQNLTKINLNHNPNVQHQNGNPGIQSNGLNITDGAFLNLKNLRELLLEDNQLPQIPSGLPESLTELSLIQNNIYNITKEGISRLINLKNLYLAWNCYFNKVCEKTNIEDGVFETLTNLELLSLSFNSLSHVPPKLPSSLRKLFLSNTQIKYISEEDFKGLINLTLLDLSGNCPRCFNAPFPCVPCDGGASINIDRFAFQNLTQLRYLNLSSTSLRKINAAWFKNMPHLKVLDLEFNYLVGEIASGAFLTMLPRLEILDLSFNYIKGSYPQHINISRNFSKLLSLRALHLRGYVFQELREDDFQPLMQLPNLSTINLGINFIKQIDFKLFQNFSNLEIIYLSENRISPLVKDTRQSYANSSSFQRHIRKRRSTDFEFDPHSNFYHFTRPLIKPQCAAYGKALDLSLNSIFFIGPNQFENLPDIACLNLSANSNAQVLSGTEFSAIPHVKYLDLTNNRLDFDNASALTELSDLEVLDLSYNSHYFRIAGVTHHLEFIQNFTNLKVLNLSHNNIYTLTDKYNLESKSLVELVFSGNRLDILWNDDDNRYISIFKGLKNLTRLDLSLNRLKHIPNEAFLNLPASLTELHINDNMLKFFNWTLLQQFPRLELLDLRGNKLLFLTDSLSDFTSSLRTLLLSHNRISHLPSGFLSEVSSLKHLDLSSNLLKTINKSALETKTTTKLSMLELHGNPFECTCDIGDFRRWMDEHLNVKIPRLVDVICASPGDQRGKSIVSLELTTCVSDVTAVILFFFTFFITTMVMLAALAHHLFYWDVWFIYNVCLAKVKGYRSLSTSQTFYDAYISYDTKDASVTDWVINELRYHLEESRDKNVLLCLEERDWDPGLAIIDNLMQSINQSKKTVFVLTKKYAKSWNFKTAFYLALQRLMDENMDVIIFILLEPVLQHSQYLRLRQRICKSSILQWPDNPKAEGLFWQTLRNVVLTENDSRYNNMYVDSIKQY
# Text: HEK293-Blue-hTLR-8 cells assay:
# as §1, with “HEK293-Blue-hTLR-8” for “HEK293-Blue-hTLR-7”, “hkb-htlr8,” for “hkb-htlr7,”, “TLR8” for “TLR7”, “hTLR8” for “hTLR7”, “TLR8.” for “TLR7.”
# as §2, with “HEK293-Blue-hTLR8” for “HEK293-Blue-hTLR7”, “250,000-450,000” for “250,000˜450,000”, “HEK293-Blue-hTLR-8” for “HEK293-Blue-hTLR-7”, “TLR8” for “TLR7”, “TLR8 agonist.” for “TLR7 agonist (Tsuneyasu Kaisho and Takashi Tanaka, Trends in Immunology, Volume 29, Issue 7, July 2008, Pages 329. sci; Hiroaki Hemmi et al, Nature Immunology 3, 2002, 196-200).”
# as §3
EC50 [1],EC50 [2],SMILES
75 µM,1.3 µM,"CC[C@H](O)[C@@H]1C[C@@H]([C@H](C)N)[C@H](n2c(=O)sc3c(=O)[nH]c(N)nc32)O1 [Example 1-A, 5-Amino-3-[(2R,3S,5S)-3-[(1S)-1-aminoethyl]-5-[(1S)-1-hydroxypropyl]tetrahydrofuran-2-yl]-6H-thiazolo[4,5-d]pyrimidine-2,7-dione]"
101 µM,55 µM,"CC[C@H](O)[C@@H]1C[C@@H]([C@@H](C)N)[C@H](n2c(=O)sc3c(=O)[nH]c(N)nc32)O1 [Example 1-B, 5-amino-3-[(2R,3S,5S)-3-[(1R)-1-aminoethyl]-5-[(1S)-1-hydroxypropyl]tetrahydrofuran-2-yl]-6H-thiazolo[4,5-d]pyrimidine-2,7-dione]"
81 µM,27 µM,"CC[C@H](O)[C@@H]1C[C@@H]([C@@H](C)NC)[C@H](n2c(=O)sc3c(=O)[nH]c(N)nc32)O1 [Example 2, 5-Amino-3-[(2R,3S,5S)-5-[(1S)-1-hydroxypropyl]-3-[(1R)-1-(methylamino)ethyl]tetrahydrofuran-2-yl]-6H-thiazolo[4,5-d]pyrimidine-2,7-dione]"
7.7 µM,125 µM,"CCCN[C@H](C)[C@@H]1C[C@@H]([C@@H](O)CC)O[C@H]1n1c(=O)sc2c(=O)[nH]c(N)nc21 [Example 3, 5-Amino-3-[(2R,3S,5S)-5-[(1S)-1-hydroxypropyl]-3-[(1R)-1-(propylamino)ethyl]tetrahydrofuran-2-yl]-6H-thiazolo[4,5-d]pyrimidine-2,7-dione]"
3.5 µM,94 µM,"CC[C@H](O)[C@@H]1C[C@@H]([C@@H](C)NC2CC2)[C@H](n2c(=O)sc3c(=O)[nH]c(N)nc32)O1 [Example 4, 5-Amino-3-[(2R,3S,5S)-3-[(1R)-1-(cyclopropylamino)ethyl]-5-[(1S)-1-hydroxypropyl]tetrahydrofuran-2-yl]-6H-thiazolo[4,5-d]pyrimidine-2,7-dione]"
3.7 µM,85 µM,"CC[C@H](O)[C@@H]1C[C@@H]([C@@H](C)NCc2ccccc2)[C@H](n2c(=O)sc3c(=O)[nH]c(N)nc32)O1 [Example 5, 5-Amino-3-[(2R,3S,5S)-3-[(1R)-1-(benzylamino)ethyl]-5-[(1S)-1-hydroxypropyl]tetrahydrofuran-2-yl]-6H-thiazolo[4,5-d]pyrimidine-2,7-dione]"
250 µM,4 µM,"CC[C@H](O)[C@@H]1C[C@@H]([C@H](C)NC)[C@H](n2c(=O)sc3c(=O)[nH]c(N)nc32)O1 [Example 6, 5-Amino-3-[(2R,3S,5S)-5-[(1S)-1-hydroxypropyl]-3-[(1S)-1-(methylamino)ethyl]tetrahydrofuran-2-yl]-6H-thiazolo[4,5-d]pyrimidine-2,7-dione]"
3.4 µM,2.2 µM,"CC[C@H](O)[C@@H]1C[C@@H]([C@H](C)NCc2ccccc2)[C@H](n2c(=O)sc3c(=O)[nH]c(N)nc32)O1 [Example 7, 5-Amino-3-[(2R,3S,5S)-3-[(1S)-1-(benzylamino)ethyl]-5-[(1S)-1-hydroxypropyl]tetrahydrofuran-2-yl]-6H-thiazolo[4,5-d]pyrimidine-2,7-dione]"
82 µM,185 µM,"CC[C@H](O)[C@@H]1C[C@@H]([C@@H](C)N(C)C)[C@H](n2c(=O)sc3c(=O)[nH]c(N)nc32)O1 [Example 8, 5-Amino-3-[(2R,3S,5S)-3-[(1R)-1-(dimethylamino)ethyl]-5-[(1S)-1-hydroxypropyl]tetrahydrofuran-2-yl]-6H-thiazolo[4,5-d]pyrimidine-2,7-dione]"
